{"source": "patent US8598339B2", "about": "“Withanolide isolated from Physalis longifolia and analogs and methods of use thereof” (University of Kansas, priority 2011, dated 2013)", "format_in_all_cases": "cell-based", "key": {"[1]": {"tested_on": "DRO81-1 medullary thyroid cancer cells", "experiment": "MTS cell viability assay, DRO81-1", "experimental": "(§1) Human carcinoid cells, NCI-H727 (ATCC, Manassas, Va.), were cultured under standard conditions. Squamous cell carcinoma of head and neck cells, MDA1986 (Myers, et al. (2002) Clin. Cancer Res. 8:293) and JMAR (Swan, et al. (2003) Oral Oncol. 39:648-55); and melanoma cells lines B16F10 (ATCC, Manassas, Va.) and SKMEL28 (CLS, Eppelheim, Germany) were cultured in DMEM medium supplemented with 10% heat-inactivated fetal bovine serum (Sigma-Aldrich, St. Louis, Mo.), 1×MEM-essential amino acid, 1×MEM vitamin, and penicillin/streptomycin (Sigma-Aldrich, St. Louis, Mo.) in a humid environment of 5% CO2 at 37° C. Activity of withanolides against DRO81-1 and TT medullary thyroid cancer cells was also determined.\n(§2) Cells were cultured in 96 well plates at a concentration of 1-2×10^4 cells/mL. Cell viability was assessed with the nonradioactive cell proliferation MTS assay using Cell Titer 96AQUEOUS One Solution Reagent (PROMEGA, Madison, Wis.), according to the manufacturer's instruction. After a 72-hour treatment, 20 μL of Cell Titer 96AQUEOUS One Solution Reagent were added to each well and incubated for 3 hours at 37° C. 5% CO2, and formazan absorbance was measured at 490 nm."}, "MRC-5": {"tested_on": "MRC-5", "experiment": "MTS cell viability assay, MRC-5", "settings": "Homo sapiens, MRC5, Table 1, 72-hour treatment"}, "Mia PaCa-2": {"tested_on": "Mia PaCa-2", "experiment": "Pancreatic cancer cell viability, Mia PaCa-2", "settings": "Homo sapiens", "experimental": "(§3) The activity of the withanolides of this invention were tested in pancreatic cancer cells. […] Moreover, IC50 values were determined for these compounds (Table 14)."}, "[2]": {"tested_on": "squamous cell carcinoma of head and neck cells JMAR", "experiment": "MTS cell viability assay, JMAR", "settings": "for IC50: Table 1, 72-hour treatment", "experimental": "as §1, §2"}, "[3]": {"tested_on": "hsf1 and client proteins of Hsp90 in Hs766T cells", "experiment": "Western blot, Hs766T"}, "[4]": {"tested_on": "heat shock factor (HSF) / HSE-luciferase in Hs766T cells", "experiment": "HSE-luciferase reporter, Hs766T", "set-up": "dose or concentration left out as unconfirmed", "settings": "heat shock 42° C. 30 minutes; recovery 8 hours", "experimental": "To monitor the activation of heat shock factor (HSF) and heat shock-mediated signal transduction pathways, Hs766T cells were transfected with a HSE-luciferase construct, then treated with 3 mM of the selected withanolides for 8 hours. The cells were heat shocked at 42° C. for 30 minutes and allowed to recover at 37° C. for 8 hours. Cells were lysed and luciferase activity was measured on a plate reader."}, "[5]": {"tested_on": "hsf1 and client proteins of Hsp90 in MIA PaCa-2 cells", "experiment": "Western blot, MIA PaCa-2"}, "[6]": {"tested_on": "human carcinoid cells NCI-H727", "experiment": "MTS cell viability assay, NCI-H727", "experimental": "as §1, §2"}, "HS766T": {"tested_on": "HS766T", "experiment": "Pancreatic cancer cell viability, HS766T", "experimental": "as §3"}, "[7]": {"tested_on": "squamous cell carcinoma of head and neck cells MDA1986", "experiment": "MTS cell viability assay, MDA1986", "settings": "Table 1, 72-hour treatment", "experimental": "as §1, §2"}, "[8]": {"tested_on": "human melanoma SKMEL28 cells", "experiment": "MTS cell viability assay, SKMEL28", "settings": "Homo sapiens; for IC50: SK-MEL-28, 72 h", "experimental": "as §1, §2\nA cell viability MTS assay was carried out to determine the anti-cancer effect of the withanolides on human melanoma SKMEL28 cells. Cells were treated for 72 hours and cell viability was determined according to the manufacturer's instruction."}, "melanoma cells B16F10": {"tested_on": "melanoma cells B16F10", "experiment": "MTS cell viability assay, B16F10", "settings": "Mus musculus; for IC50: B16-F10, Table 1, 72-hour treatment", "experimental": "as §1, §2"}, "[9]": {"tested_on": "HSF1, Hsp70 and Hsp40 mRNA", "experiment": "HSF1, Hsp70 and Hsp40 mRNA levels", "settings": "Control 1.0", "experimental": "Levels of HSF1, Hsp70 and Hsp40 mRNA were also determined in response to treatment with SX002 or X003 for 8 or 16 hours."}, "SUP-B15 Ph+ALL cells": {"tested_on": "SUP-B15 Ph+ALL cells", "experiment": "Combination with imatinib, MTS viability, SUP-B15", "settings": "16 combinations", "experimental": "(§4) Cell proliferation was analyzed using MTS assay and Trypan Blue exclusion. Annexin V-FITC/Propidium Iodide flow cytometry was used to analyze the induction of apoptosis in SUP-B15 cells after treatment with anolides. Cell cycle analysis was performed using propidium iodide flow cytometry. Modulation of BCR-ABL and downstream effector proteins was determined by western blot analysis. Syngery between withanolides and TKIs was evaluated using MTS viability to calculate combination indices. Apoptotic synergy was evaluated using Annexin V/PI."}, "SUP-B15 Ph+ ALL cells": {"tested_on": "SUP-B15 Ph+ ALL cells", "experiment": "MTS assay, SUP-B15", "experimental": "as §4"}, "SUP-B15 cells [10]": {"tested_on": "SUP-B15 cells", "experiment": "Annexin V/propidium iodide apoptosis, SUP-B15", "settings": "48 hour; approximately 10×IC50 (Withaferin A, X001), 4×IC50 (X003)", "experimental": "as §4\nAt no concentrations was the population of cells in necrosis significant."}, "normal MRC-5 fibroblasts": {"tested_on": "normal MRC-5 fibroblasts", "experiment": "MTS assay, normal MRC-5 fibroblasts (Example 7)", "settings": "Homo sapiens, MRC5", "experimental": "as §4"}, "[11]": {"tested_on": "TT medullary thyroid cancer cells", "experiment": "MTS cell viability assay, TT", "settings": "Table 1, 72-hour treatment", "experimental": "as §1, §2"}, "SUP-B15 cells [12]": {"tested_on": "SUP-B15 cells", "experiment": "Trypan blue exclusion assay, SUP-B15", "settings": "5×, 2×, 1×, 0.5×IC50", "experimental": "Cell proliferation was analyzed using MTS assay and Trypan Blue exclusion. Annexin V-FITC/Propidium Iodide flow cytometry was used to analyze the induction of apoptosis in SUP-B15 cells after treatment with anolides. Cell cycle analysis was performed using propidium iodide flow cytometry. Modulation of BCR-ABL and downstream effector proteins was determined by western blot analysis. […] between withanolides and TKIs was evaluated using MTS viability to calculate combination indices. Apoptotic synergy was evaluated using Annexin V/PI."}, "SUP-B15 cells [13]": {"tested_on": "SUP-B15 cells", "experiment": "Cell cycle analysis by PI flow cytometry, SUP-B15", "settings": "48 hour treatment", "experimental": "as §4"}, "[14]": {"settings": "Table 3, treated for 72 hours, NA = no activity"}}, "note": "Where two headings read alike, the source gives them in different places."}
{"molecule": "CC(=O)OCC1=C(C)C[C@H]([C@@H](C)C2CC[C@H]3[C@@H]4C[C@H]5O[C@]56[C@@H](OC(C)=O)C=CC(=O)[C@]6(CO)[C@H]4CC[C@]23C)OC1=O", "note": "(some centres unmarked) [Compound X002, 4,27-diactyl X001]", "values": [{"measurement": "IC50", "setting": "[1]; 72 h", "result": 480, "unit": "nM"}, {"measurement": "IC50", "setting": "MRC-5", "result": 410, "unit": "nM"}, {"measurement": "IC50", "setting": "Mia PaCa-2", "result": 220, "unit": "nM"}, {"measurement": "IC50", "setting": "[2]", "result": 140, "unit": "nM"}, {"measurement": "stress and client protein response (western blot)", "setting": "[3]", "result": "induced oxidative and proteotoxic stress, while depleting hsf1 and client proteins of Hsp90"}, {"measurement": "heat shock-induced increase in luciferase activity", "setting": "[4]", "result": "substantially reduced"}, {"measurement": "stress and client protein response (western blot)", "setting": "[5]", "result": "induced oxidative and proteotoxic stress, while depleting hsf1 and client proteins of Hsp90"}, {"measurement": "IC50", "setting": "[6]; NCI-H727, 72 h", "result": 370, "unit": "nM"}, {"measurement": "IC50", "setting": "HS766T", "result": 400, "unit": "nM"}, {"measurement": "IC50", "setting": "[7]", "result": 2240, "unit": "nM"}, {"measurement": "IC50", "setting": "[8]; Table 1, 72-hour treatment", "result": 810, "unit": "nM"}, {"measurement": "IC50", "setting": "[8]; [14]", "result": 1250, "unit": "nM"}, {"measurement": "IC50", "setting": "melanoma cells B16F10", "result": 98, "unit": "nM"}, {"measurement": "HSF1 mRNA level", "setting": "[9]; 8 hours", "result": 1.3}, {"measurement": "HSP40 mRNA level", "setting": "[9]; 8 hours", "result": 13.1}, {"measurement": "HSP70 mRNA level", "setting": "[9]; 8 hours", "result": 56.6}, {"measurement": "HSF1 mRNA level", "setting": "[9]; 16 hours", "result": 1.1}, {"measurement": "HSP40 mRNA level", "setting": "[9]; 16 hours", "result": 15.3}, {"measurement": "HSP70 mRNA level", "setting": "[9]; 16 hours", "result": 196.7}]}
{"molecule": "CC1=C(CO)C(=O)O[C@@H]([C@@H](C)[C@H]2CC[C@H]3[C@@H]4C[C@H]5O[C@]56[C@@H](O)C=CC(=O)[C@]6(C)[C@H]4CC[C@]23C)C1", "note": "[Withaferin A, reference compound]", "values": [{"measurement": "IC50", "setting": "[1]; Table 1, DRO81-1, 72-hour treatment, read-out: IC50", "result": 1090, "unit": "nM"}, {"measurement": "combination index (CI) with imatinib", "setting": "SUP-B15 Ph+ALL cells; 0.25×-1×IC50 of each drug", "result": 1.3}, {"measurement": "synergy with imatinib", "setting": "SUP-B15 Ph+ALL cells", "result": "only showed synergy at three of the concentrations tested"}, {"measurement": "IC50", "setting": "MRC-5", "result": 200, "unit": "nM"}, {"measurement": "IC50", "setting": "SUP-B15 Ph+ ALL cells; Homo sapiens, SUP-B15", "result": 132, "unit": "nM"}, {"measurement": "Fold Difference", "setting": "SUP-B15 Ph+ ALL cells; MRC-5 vs SUP-B15 IC50", "result": 17, "unit": "X"}, {"measurement": "induction of apoptosis", "setting": "SUP-B15 cells [10]", "result": "almost all cells were in either late or early apoptosis"}, {"measurement": "IC50", "setting": "normal MRC-5 fibroblasts", "result": 2200, "unit": "nM"}, {"measurement": "IC50", "setting": "[2]", "result": 2000, "unit": "nM"}, {"measurement": "IC90", "setting": "[2]; Table 2", "result": 3600, "unit": "nM"}, {"measurement": "IC50", "setting": "[11]", "result": 1130, "unit": "nM"}, {"measurement": "cell death at 24 hours, trypan blue exclusion", "setting": "SUP-B15 cells [12]", "result": "did not cause significant cell death at 24 hours at any concentration tested"}, {"measurement": "IC50", "setting": "[6]; Table 1, NCI-H727, 72-hour treatment, read-out: IC50", "result": 3880, "unit": "nM"}, {"measurement": "Cell Cycle (%) G0/G1", "setting": "SUP-B15 cells [13]; 80 nM", "result": 49.9, "unit": "%"}, {"measurement": "Cell Cycle (%) G2/M", "setting": "SUP-B15 cells [13]; 80 nM", "result": 27.8, "unit": "%"}, {"measurement": "Cell Cycle (%) S", "setting": "SUP-B15 cells [13]; 80 nM", "result": 22.2, "unit": "%"}, {"measurement": "Cell Cycle (%) G0/G1", "setting": "SUP-B15 cells [13]; 160 nM", "result": 50.2, "unit": "%"}, {"measurement": "Cell Cycle (%) G2/M", "setting": "SUP-B15 cells [13]; 160 nM", "result": 28.4, "unit": "%"}, {"measurement": "Cell Cycle (%) S", "setting": "SUP-B15 cells [13]; 160 nM", "result": 21.4, "unit": "%"}, {"measurement": "Cell Cycle (%) G0/G1", "setting": "SUP-B15 cells [13]; 320 nM", "result": 38.4, "unit": "%"}, {"measurement": "Cell Cycle (%) G2/M", "setting": "SUP-B15 cells [13]; 320 nM", "result": 46.8, "unit": "%"}, {"measurement": "Cell Cycle (%) S", "setting": "SUP-B15 cells [13]; 320 nM", "result": 14.8, "unit": "%"}, {"measurement": "Cell Cycle (%) G0/G1", "setting": "SUP-B15 cells [13]; 640 nM", "result": 23.7, "unit": "%"}, {"measurement": "Cell Cycle (%) G2/M", "setting": "SUP-B15 cells [13]; 640 nM", "result": 71, "unit": "%"}, {"measurement": "Cell Cycle (%) S", "setting": "SUP-B15 cells [13]; 640 nM", "result": 5.3, "unit": "%"}, {"measurement": "Cell Cycle (%) G0/G1", "setting": "SUP-B15 cells [13]; 1280 nM", "result": 47.1, "unit": "%"}, {"measurement": "Cell Cycle (%) G2/M", "setting": "SUP-B15 cells [13]; 1280 nM", "result": 34.3, "unit": "%"}, {"measurement": "Cell Cycle (%) S", "setting": "SUP-B15 cells [13]; 1280 nM", "result": 18.6, "unit": "%"}, {"measurement": "IC50", "setting": "[7]", "result": 800, "unit": "nM"}, {"measurement": "IC50", "setting": "[8]; Table 1, 72-hour treatment", "result": 3960, "unit": "nM"}, {"measurement": "IC50", "setting": "[8]; [14]", "result": 3150, "unit": "nM"}, {"measurement": "IC90", "setting": "[8]; SK-MEL-28, Table 2", "result": 680, "unit": "nM"}, {"measurement": "IC50", "setting": "melanoma cells B16F10", "result": 260, "unit": "nM"}, {"measurement": "IC90", "setting": "melanoma cells B16F10; B16-F10, Table 2", "result": 1230, "unit": "nM"}]}
